Measured values as given in ChEMBL document CHEMBL2413011, “One-pot tandem Hurtley-retro-Claisen-cyclisation reactions in the synthesis of 3-substituted analogues of 5-aminoisoquinolin-1-one (5-AIQ), a water-soluble inhibitor of PARPs” (Bioorg Med Chem, 2013).

Target: Poly [ADP-ribose] polymerase 1 (Bos taurus, UniProt P18493)
Assay: Inhibition of calf thymus PARP-1

Poly [ADP-ribose] polymerase 1 (Bos taurus, UniProt P18493), sequence (P18493 whole entry): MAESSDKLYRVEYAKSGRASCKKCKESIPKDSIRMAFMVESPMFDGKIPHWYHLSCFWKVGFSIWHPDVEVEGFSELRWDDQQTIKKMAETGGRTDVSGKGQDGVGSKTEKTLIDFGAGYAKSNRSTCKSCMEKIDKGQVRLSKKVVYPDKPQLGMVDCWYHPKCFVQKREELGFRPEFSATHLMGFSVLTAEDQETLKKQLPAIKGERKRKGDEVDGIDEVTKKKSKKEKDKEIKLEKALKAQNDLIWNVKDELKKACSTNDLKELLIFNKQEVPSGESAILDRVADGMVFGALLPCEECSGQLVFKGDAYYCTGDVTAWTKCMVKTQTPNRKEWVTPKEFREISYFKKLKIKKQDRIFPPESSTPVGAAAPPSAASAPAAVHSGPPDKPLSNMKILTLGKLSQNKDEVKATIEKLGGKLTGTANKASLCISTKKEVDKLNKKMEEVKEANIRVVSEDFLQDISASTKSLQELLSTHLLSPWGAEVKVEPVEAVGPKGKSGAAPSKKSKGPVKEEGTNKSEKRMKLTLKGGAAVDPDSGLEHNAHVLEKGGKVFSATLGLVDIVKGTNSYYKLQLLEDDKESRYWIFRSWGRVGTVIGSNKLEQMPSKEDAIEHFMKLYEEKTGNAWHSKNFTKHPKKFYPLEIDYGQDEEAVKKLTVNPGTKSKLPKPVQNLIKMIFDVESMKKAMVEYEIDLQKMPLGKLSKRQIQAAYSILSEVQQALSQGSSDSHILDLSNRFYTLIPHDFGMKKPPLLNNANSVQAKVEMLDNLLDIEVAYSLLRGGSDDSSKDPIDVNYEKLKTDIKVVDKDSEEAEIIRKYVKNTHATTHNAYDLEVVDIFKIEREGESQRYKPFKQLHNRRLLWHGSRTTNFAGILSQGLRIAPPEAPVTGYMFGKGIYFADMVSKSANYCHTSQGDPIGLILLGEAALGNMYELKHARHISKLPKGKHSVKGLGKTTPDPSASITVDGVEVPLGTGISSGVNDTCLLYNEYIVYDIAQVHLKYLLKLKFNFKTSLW

| SMILES | IC50 [nM] |
| --- | --- |
| Nc1cccc2c(=O)[nH]ccc12 | 250 |

Target: T1, Poly [ADP-ribose] polymerase 1 (Homo sapiens, UniProt P09874)
T1 sequence (P09874 whole entry): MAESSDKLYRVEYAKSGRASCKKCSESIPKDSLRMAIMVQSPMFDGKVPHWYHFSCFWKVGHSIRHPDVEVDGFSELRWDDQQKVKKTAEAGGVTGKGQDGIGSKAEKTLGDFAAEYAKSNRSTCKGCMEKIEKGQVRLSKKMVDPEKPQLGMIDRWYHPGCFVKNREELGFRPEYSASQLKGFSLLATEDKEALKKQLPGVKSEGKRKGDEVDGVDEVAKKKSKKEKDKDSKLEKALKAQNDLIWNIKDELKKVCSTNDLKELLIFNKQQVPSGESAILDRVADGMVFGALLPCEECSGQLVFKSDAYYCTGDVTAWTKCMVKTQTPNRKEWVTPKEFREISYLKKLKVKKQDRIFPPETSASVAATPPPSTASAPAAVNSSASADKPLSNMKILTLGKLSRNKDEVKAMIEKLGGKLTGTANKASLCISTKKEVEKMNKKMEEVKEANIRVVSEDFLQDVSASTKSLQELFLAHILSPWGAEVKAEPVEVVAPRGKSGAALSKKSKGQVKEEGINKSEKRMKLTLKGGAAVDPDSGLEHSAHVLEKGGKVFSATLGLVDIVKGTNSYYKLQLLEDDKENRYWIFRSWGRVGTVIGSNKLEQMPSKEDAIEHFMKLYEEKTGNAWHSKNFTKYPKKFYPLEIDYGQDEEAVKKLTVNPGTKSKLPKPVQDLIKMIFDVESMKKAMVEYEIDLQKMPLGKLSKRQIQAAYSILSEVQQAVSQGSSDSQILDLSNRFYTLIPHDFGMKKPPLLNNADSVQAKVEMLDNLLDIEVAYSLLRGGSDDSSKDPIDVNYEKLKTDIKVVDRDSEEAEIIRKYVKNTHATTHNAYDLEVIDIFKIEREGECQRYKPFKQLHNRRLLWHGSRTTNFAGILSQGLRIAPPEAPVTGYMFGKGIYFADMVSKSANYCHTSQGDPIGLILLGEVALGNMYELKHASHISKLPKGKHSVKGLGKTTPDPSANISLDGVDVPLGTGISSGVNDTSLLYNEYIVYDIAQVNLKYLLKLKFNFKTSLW
Assay: Inhibition of PARP-1 (unknown origin) in broken nuclear preparation

| SMILES | IC50 [nM] |
| --- | --- |
| Nc1cccc2c(=O)[nH]ccc12 | 300 |

Target: T1, Poly [ADP-ribose] polymerase 1
Assay: Inhibition of human PARP-1 assessed as synthesis of [3H]-ADP-ribose polymers from [3H]-NAD+ by scintillation proximity assay

| SMILES | IC50 [nM] |
| --- | --- |
| Nc1cccc2c(=O)[nH]ccc12 | 1600 |

Target: Poly [ADP-ribose] polymerase 2 (Mus musculus, UniProt O88554)
Sequence (O88554 whole entry): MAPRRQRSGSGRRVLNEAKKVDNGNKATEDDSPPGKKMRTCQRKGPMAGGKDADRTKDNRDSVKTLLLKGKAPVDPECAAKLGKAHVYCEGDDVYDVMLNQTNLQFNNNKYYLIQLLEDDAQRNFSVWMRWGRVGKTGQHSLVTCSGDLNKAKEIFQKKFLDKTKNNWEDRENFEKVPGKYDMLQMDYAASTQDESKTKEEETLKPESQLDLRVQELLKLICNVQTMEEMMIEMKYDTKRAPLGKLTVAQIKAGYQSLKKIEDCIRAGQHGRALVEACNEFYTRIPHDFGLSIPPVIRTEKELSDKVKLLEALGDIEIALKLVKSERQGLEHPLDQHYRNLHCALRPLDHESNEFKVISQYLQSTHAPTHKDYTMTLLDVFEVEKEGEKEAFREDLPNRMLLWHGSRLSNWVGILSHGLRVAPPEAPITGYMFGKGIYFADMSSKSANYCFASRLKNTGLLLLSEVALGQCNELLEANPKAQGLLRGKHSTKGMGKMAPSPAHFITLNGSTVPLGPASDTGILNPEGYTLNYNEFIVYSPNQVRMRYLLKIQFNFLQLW
Assay: Inhibition of mouse PARP-2

| IC50 [nM] | SMILES |
| --- | --- |
| 830 | CCc1cc2c(N)cccc2c(=O)[nH]1 |
| 480 | Nc1cccc2c(=O)[nH]c(-c3ccccc3)cc12 |
| 120 | Cc1ccc(-c2cc3c(N)cccc3c(=O)[nH]2)cc1 |
| 170 | Nc1cccc2c(=O)[nH]c(-c3ccc(C(F)(F)F)cc3)cc12 |
| 260 | Cc1cc2c(N)cccc2c(=O)[nH]1 |
| 730 | COc1ccc(-c2cc3c(N)cccc3c(=O)[nH]2)cc1 |
| 160 | Nc1cccc2c(=O)[nH]c(-c3ccc(Cl)cc3)cc12 |

Tested on: not listed separately
Assay: Solubility of the compound in water
Type: physicochemical

| solubility [mM] | SMILES |
| --- | --- |
| > 30 | CCCCCc1cc2c(N)cccc2c(=O)[nH]1.Cl |
| > 30 | Cc1ccc(-c2cc3c(N)cccc3c(=O)[nH]2)cc1.Cl |
| > 30 | COc1ccc(-c2cc3c(N)cccc3c(=O)[nH]2)cc1.Cl |
| > 30 | Cl.Nc1cccc2c(=O)[nH]c(-c3cccs3)cc12 |
| > 30 | CC(C)Cc1cc2c(N)cccc2c(=O)[nH]1.Cl |
| > 30 | Cl.Nc1cccc2c(=O)[nH]c(-c3ccc(C(F)(F)F)cc3)cc12 |
| > 30 | Cl.Nc1cccc2c(=O)[nH]c(Cc3ccccc3)cc12 |
| > 30 | CCc1cc2c(N)cccc2c(=O)[nH]1.Cl |
| > 30 | Cl.Nc1cccc2c(=O)[nH]c(-c3ccccc3)cc12 |
| > 30 | Cl.Nc1cccc2c(=O)[nH]c(-c3ccc(Cl)cc3)cc12 |
| > 30 | Cc1cc2c(N)cccc2c(=O)[nH]1.Cl |
